Read-outs that look alike come from different tables or passages of the source.
Columns and labels:
BTK = molecular target: T1, BTK (Homo sapiens, UniProt Q06187); experiment: Off-chip Mobility Shift Assay; format: biochemical; details: read-out: IC50, recombinant BTK activity
T1 construct: purchased Carna Biosciences

RAF1 = experiment: Off-chip Mobility Shift Assay; format: biochemical
[1] = Metabolic stability in human liver microsomes; format: in vitro ADME; details: for microsomal CLint at 1 μM / half-life at 1 μM: human, liver microsomes, human liver microsomes 0.5 mg/mL, NADPH and UDPGA, 37° C.; for microsomal CLint at 1 μM: read-out: CLint (intrinsic clearance); for half-life at 1 μM: read-out: In vitro t1/2; for metabolic stability as compared to dasatinib: human liver microsomes
Experimental: FIG. 1. Metabolic stability of compounds in human liver microsomal incubations. […] Concentrations at specified times were determined by LC-MS/MS.
The incubation reactions at various time points were quenched by adding 2× volumes of acetonitrile containing 100 nM reserpine. The quenched incubation samples were centrifuged at 4000 RPM for 10 min, and the supernatants injected for LC/MS/MS analysis. LC/MS/MS analysis was carried out on a AB Sciex 4000 Q Trap LC/MS/MS system coupled with Shimadzu Prominence UFLCXR 20 series (including a CBM-20A controller, two LC-20ADXR solvent delivery units, SIL-20AC HT autosampler, CTO-20A column oven, and a SPD-20A UV detector).

[2] = Pharmacokinetics in Sprague-Dawley rats, 2-in-1 dosing; format: in vivo; details: for clearance / Vd / AUC(0-inf) / AUC(0-t) / half-life / bioavailability / Cmax / Tmax: Sprague-Dawley, rat; for clearance / Vd / AUC(0-inf) / AUC(0-t) / half-life / bioavailability: plasma; for clearance: read-out: CL (plasma clearance) (converted); for Vd: read-out: V (volume of distribution); for AUC(0-inf) / AUC(0-t) / half-life / Cmax / Tmax: single dose; for bioavailability: read-out: F (percent oral bioavailability); for intravenous plasma clearance compared to dasatinib and compound III / intravenous volume of distribution compared to dasatinib and compound III: Sprague-Dawley rats
Experimental: Sprague-Dawley rats (approximate weight 275-300 g, N=3) were dosed intravenously at 5 mL/kg and orally at 10 mL/kg with the above dosing solutions. Blood samples were collected into tubes containing EDTA as the anticoagulant at 0, 0.25 (intravenous only), 0.5, 1, 2, 4, 8, 10, and 24 h post-dosing, and plasma samples were prepared by centrifugation. The plasma samples were mixed with 3× volumes of acetonitrile containing 100 nM reserpine as the internal standard, and centrifuged at 4000 RPM for 15 min. The supernatants were injected for LC/MS analysis which were carried out on a AB Sciex 4000 Q Trap LC/MS/MS system coupled with Shimadzu Prominence UFLCXR 20 series (including a CBM-20A controller, two LC-20ADXR solvent delivery units, SIL-20AC HT autosampler, CTO-20A column oven, and a SPD-20A UV detector). The samples were separated on a Phenomenex Columbus column (C18, 4 μm, 50×2 mm) eluted with two solvent systems: 2 mM ammonium acetate in water containing 0.1% formic acid (A) and methanol (B) at a linear gradient starting with 25% B. Electrospray ionization in positive mode was used to acquire LC/MS/MS data.

ABL = molecular target: T2, ABL (Homo sapiens, UniProt P00519); experiment: Off-chip Mobility Shift Assay; format: biochemical; details: read-out: IC50, recombinant ABL activity
T2 construct: purchased Carna Biosciences

[3] = Lung tissue and plasma concentration ratios in mice; format: in vivo, CD-1 mouse; details: single oral dose 5 mg/kg, 2-in-1 with dasatinib, all time points tested
Experimental: CD-1 mouse (approximate weight 30 g, N=3) were dosed by oral gavage at 10 mL/kg. Blood samples were collected into tubes containing EDTA as the anticoagulant at 1, 2, 4, 10 h post-dosing for Compound X, and predose, 1, 2, 3, 8, 10 and 24 h post-dosing for Compound XI. The plasma samples were prepared by centrifugation. Lung samples were also collected at each of the above time points. The lung samples were homogenated in 4× distilled water (v/w). The plasma samples and the homogenated lung tissue samples were mixed with 3× volumes of acetonitrile containing 100 nM reserpine as the internal standard, and centrifuged at 4000 RPM for 15 min. The supernatants were injected for LC/MS analysis which were carried out on a AB Sciex 4000 Q Trap LC/MS/MS system coupled with Shimadzu Prominence UFLCXR 20 series (including a CBM-20A controller, two LC-20ADXR solvent delivery units, SIL-20AC HT autosampler, CTO-20A column oven, and a SPD-20A UV detector). The samples were separated on a Phenomenex Columbus column (C18, 4 μm, 50×2 mm) eluted with two solvent systems: 2 mM ammonium acetate in water containing 0.1% formic acid (A) and methanol (B) at a linear gradient starting at 25%. Electrospray ionization in positive mode was used to acquire LC/MS/MS data.

BTK (C481S) = molecular target: T3, BTK (C481S) (Homo sapiens, UniProt Q06187, C481S); experiment: Off-chip Mobility Shift Assay; format: biochemical; details: read-out: IC50, recombinant BTK (C481S) activity
T3 construct: purchased Carna Biosciences

ABL(E255K) = molecular target: T4, ABL(E255K) (Homo sapiens, UniProt P00519, E255K); experiment: Off-chip Mobility Shift Assay; format: biochemical; details: read-out: IC50, recombinant ABL (E255K) activity
T4 construct: purchased Carna Biosciences

[4] = iv, 1 mg/kg, intravenous 1 mg/kg, single dose (Table 2)
[5] = iv, 1 mg/kg, intravenous 1 mg/kg, single dose (Table 3)
[6] = iv, 1 mg/kg, intravenous 1 mg/kg, plasma (Table 2)
[7] = iv, 1 mg/kg, intravenous 1 mg/kg, plasma (Table 2), read-out: t1/2 (converted)
[8] = iv, 1 mg/kg, intravenous 1 mg/kg, plasma (Table 3)
[9] = iv, 1 mg/kg, intravenous 1 mg/kg, plasma (Table 3), read-out: t½ (converted)
[10] = po, 2.5 mg/kg, PO 2.5 mg/kg, plasma (Table 2)
[11] = po, 2.5 mg/kg, PO 2.5 mg/kg, plasma (Table 2), read-out: t1/2 (converted)
[12] = po, 5 mg/kg, PO 5 mg/kg, plasma (Table 3)
[13] = po, 5 mg/kg, PO 5 mg/kg, plasma (Table 3), read-out: t½ (converted)
[14] = PO 2.5 mg/kg versus intravenous 1 mg/kg, AUCinf dose normalized (Table 2)

T1 sequence (Q06187 whole entry): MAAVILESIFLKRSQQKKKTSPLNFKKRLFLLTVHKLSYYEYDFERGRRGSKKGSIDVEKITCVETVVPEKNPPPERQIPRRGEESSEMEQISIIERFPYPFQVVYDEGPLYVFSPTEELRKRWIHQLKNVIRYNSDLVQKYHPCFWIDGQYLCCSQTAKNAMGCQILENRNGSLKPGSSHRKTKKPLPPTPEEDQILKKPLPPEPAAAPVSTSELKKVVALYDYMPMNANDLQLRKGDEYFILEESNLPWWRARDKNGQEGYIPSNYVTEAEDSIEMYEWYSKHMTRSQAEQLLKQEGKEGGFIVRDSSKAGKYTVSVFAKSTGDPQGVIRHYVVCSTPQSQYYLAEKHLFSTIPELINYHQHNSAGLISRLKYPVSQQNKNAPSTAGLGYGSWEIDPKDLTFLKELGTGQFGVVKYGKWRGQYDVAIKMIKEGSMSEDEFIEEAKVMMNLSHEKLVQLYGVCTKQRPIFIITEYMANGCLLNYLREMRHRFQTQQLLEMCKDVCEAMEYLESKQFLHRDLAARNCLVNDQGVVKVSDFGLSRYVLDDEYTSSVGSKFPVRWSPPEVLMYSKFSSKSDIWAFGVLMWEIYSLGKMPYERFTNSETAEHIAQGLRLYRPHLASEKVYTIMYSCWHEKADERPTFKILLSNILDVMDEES
T3 sequence (Q06187 whole entry C481S): as the sequence (Q06187 whole entry) above, with C481S counted along it
T2 sequence (P00519 whole entry): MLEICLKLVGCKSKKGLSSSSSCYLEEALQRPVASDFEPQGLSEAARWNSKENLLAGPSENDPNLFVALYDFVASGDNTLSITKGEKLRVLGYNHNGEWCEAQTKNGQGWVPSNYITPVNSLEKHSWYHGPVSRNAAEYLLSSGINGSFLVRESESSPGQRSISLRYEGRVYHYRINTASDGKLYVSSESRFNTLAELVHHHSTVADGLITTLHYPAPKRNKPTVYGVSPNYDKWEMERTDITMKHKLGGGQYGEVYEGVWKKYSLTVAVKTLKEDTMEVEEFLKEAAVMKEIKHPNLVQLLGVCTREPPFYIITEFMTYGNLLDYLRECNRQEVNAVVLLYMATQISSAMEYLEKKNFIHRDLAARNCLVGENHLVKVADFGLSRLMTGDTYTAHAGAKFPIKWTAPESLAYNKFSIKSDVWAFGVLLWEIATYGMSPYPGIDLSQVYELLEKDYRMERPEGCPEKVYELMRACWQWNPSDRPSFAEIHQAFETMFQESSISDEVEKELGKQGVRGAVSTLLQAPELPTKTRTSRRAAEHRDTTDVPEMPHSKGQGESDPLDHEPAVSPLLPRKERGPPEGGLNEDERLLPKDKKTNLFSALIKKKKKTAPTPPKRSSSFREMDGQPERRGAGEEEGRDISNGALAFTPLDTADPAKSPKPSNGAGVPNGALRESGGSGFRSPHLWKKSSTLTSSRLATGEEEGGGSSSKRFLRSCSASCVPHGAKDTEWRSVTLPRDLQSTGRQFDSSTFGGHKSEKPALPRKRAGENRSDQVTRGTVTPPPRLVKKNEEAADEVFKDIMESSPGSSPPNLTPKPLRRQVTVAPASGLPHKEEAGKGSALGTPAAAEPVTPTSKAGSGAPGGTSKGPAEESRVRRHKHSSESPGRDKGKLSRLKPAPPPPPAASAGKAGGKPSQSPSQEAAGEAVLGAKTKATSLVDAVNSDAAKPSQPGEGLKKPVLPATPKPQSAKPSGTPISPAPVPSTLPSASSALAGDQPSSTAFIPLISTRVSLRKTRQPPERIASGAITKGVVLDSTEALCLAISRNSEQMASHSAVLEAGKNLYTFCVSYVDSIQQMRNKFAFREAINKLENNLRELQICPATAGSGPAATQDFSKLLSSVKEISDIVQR
T4 sequence (P00519 whole entry E255K): as the sequence (P00519 whole entry) above, with E255K counted along it

Compound	IC50 (BTK) [nM]	microsomal CLint at 1 μM [1] [µL/min/mg]	half-life at 1 μM [1] [h]	clearance [2, 4] [mL/min/kg]	Vd [2, 4] [L/kg]	clearance [2, 5] [mL/min/kg]	Vd [2, 5] [L/kg]	AUC(0-inf) [2, 6] [ng·h/mL]	AUC(0-t) [2, 6] [ng·h/mL]	half-life [2, 7] [h]	AUC(0-inf) [2, 8] [ng·h/mL]	AUC(0-inf) [2, 10] [ng·h/mL]	AUC(0-t) [2, 10] [ng·h/mL]	half-life [2, 11] [h]	bioavailability [2, 14] [%]	Cmax ([2]; PO 2.5 mg/kg, plasma (Table 2)) [ng/mL]	Tmax ([2]; PO 2.5 mg/kg, plasma (Table 2)) [h]	intravenous plasma clearance compared to dasatinib and compound III [2]	intravenous volume of distribution compared to dasatinib and compound III [2]	metabolic stability as compared to dasatinib [1]	other results
[2H]c1cc(C)c(NC(=O)c2cnc(Nc3cc(N4CCC(O)CC4)nc(C)n3)s2)c(Cl)c1 [Compound II, N-(2-chloro-4-deuterio-6-methyl-phenyl)-2-[[6-(4-hydroxy-1-piperidyl)-2-methyl-pyrimidin-4-yl]amino]thiazole-5-carboxamide]	< 1	44	0.533	–	–	–	–	–	–	–	–	–	–	–	–	–	–	–	–	–	inhibition of RAF1 (RAF1; 1 nM): < 50%; inhibition of RAF1 (RAF1; 10 nM): < 50%; inhibition of RAF1 (RAF1; 100 nM): < 50%
[2H]c1cc(C)c(NC(=O)c2cnc(Nc3cc(N4CCN(CCO)CC4)nc(C)n3)s2)c(Cl)c1 [Compound III]	–	–	0.4	20.2	3	18.6	3	835 ± 114	835 ± 114	1.6 ± 0.1	917 ± 161	144 ± 68	139 ± 69	4.7 ± 2.2	7.2 ± 4.2	9 ± 6	5.5 ± 4.3	–	–	–	AUC(0-t) [2, 8]: 916 ± 161 ng·h/mL; half-life [2, 9]: 1.7 ± 0.2 h; AUC(0-inf) [2, 12]: 137 ± 20 ng·h/mL; AUC(0-t) [2, 12]: 124 ± 26 ng·h/mL; half-life [2, 13]: 8.2 ± 4.1 h; bioavailability ([2]; PO 5 mg/kg versus intravenous 1 mg/kg, AUCinf dose normalized (Table 3)): 6 ± 0.9%; Cmax ([2]; PO 5 mg/kg, plasma (Table 3)): 11 ± 11 ng/mL; Tmax ([2]; PO 5 mg/kg, plasma (Table 3)): 0.5 h
[2H]c1cc(C)c(NC(=O)c2cnc(Nc3cc(N4CC[C@H](O)C4)nc(C)n3)s2)c(Cl)c1 [Compound IV, N-(2-chloro-4-deutero-6-methylphenyl)-2-[[2-methyl-6-((S)-3-hydroxypyrrolidin-1-yl)pyrimidin-4-yl]amino]thiazole-5-carboxamide]	–	< 24	> 0.983	8.92	1	–	–	1880 ± 153	1880 ± 152	1.4 ± 0.1	–	892 ± 341	891 ± 341	2.3 ± 0.2	18.9 ± 6.7	82 ± 13	5.5 ± 4.3	much lower	significantly lower	significantly greater stability	–
[2H]c1cc(C)c(NC(=O)c2cnc(Nc3cc(N4CC[C@@H](O)C4)nc(C)n3)s2)c(Cl)c1 [Compound V, N-(2-chloro-4-deutero-6-methylphenyl)-2-[[2-methyl-6-((R)-3-hydroxypyrrolidin-1-yl)pyrimidin-4-yl]amino]thiazole-5-carboxamide]	–	< 24	> 0.983	8.57	1	–	–	1960 ± 214	1960 ± 214	1.4 ± 0.1	–	539 ± 188	524 ± 191	4.4 ± 2.8	11.1 ± 4.3	35 ± 19	5.5 ± 4.3	much lower	significantly lower	significantly greater stability	–
Cc1nc(Nc2ncc(C(=O)Nc3c(C)cccc3Cl)s2)cc(N2CC[C@H](O)C2)n1 [Compound X, N-(2-chloro-6-methylphenyl)-2-[[2-methyl-6-((S)-3-hydroxypyrrolidin-1-yl)pyrimidin-4-yl]amino]thiazole-5-carboxamide]	< 1	< 24	> 0.983	–	–	6.75	1	–	–	–	2520 ± 446	–	–	–	–	–	–	much lower	significantly lower	significantly greater stability	AUC(0-t) [2, 8]: 2520 ± 446 ng·h/mL; half-life [2, 9]: 1.6 ± 0.2 h; AUC(0-inf) [2, 12]: 1200 ± 349 ng·h/mL; AUC(0-t) [2, 12]: 1120 ± 369 ng·h/mL; half-life [2, 13]: 6.8 ± 4.1 h; Cmax ([2]; PO 5 mg/kg, plasma (Table 3)): 93 ± 101 ng/mL; Tmax ([2]; PO 5 mg/kg, plasma (Table 3)): 0.5 h; IC50 (ABL): < 1 nM; ratio of lung tissue concentration to plasma concentration as compared to dasatinib [3]: significantly lower; IC50 (BTK (C481S)): < 1 nM; IC50 (ABL(E255K)): < 1 nM

— patent US20180099961A1, “PROTEIN KINASE INHIBITORS” (Princeton Drug Discovery Inc, priority 2016, published 2018)
